Publication PMC8074679, “Synthesis and pharmacological characterization of glucopyranosyl-conjugated benzyl derivatives as novel selective cytotoxic agents against colon cancer” (Royal Society Open Science, 2021)
Read-outs that look alike come from different tables or passages of the source.

How the values were obtained:
HCT-116 cells [1] = assay: Hoechst 33258 staining; type: cell-based, human; settings: 5 µM, 48 or 72 h
Method: (§1) Next, the type of cell death induced by compound 8d was investigated. […] Annexin V/PI staining assay were carried out to analyse the apoptotic rate of HCT-116 cells.
HCT-116 cells were seeded in coverslips for 24 h, and then compound 8d was incubated at a concentration of 5 µM for 48 or 72 h. Cells were incubated with Hoechst 33258 (Sigma, USA) in the dark at room temperature for 30 min after being fixed with 4% paraformaldehyde. The nuclear morphology of apoptosis was observed by fluorescence microscope (Olympus, Japan).

HCT-116 cells [2] = assay: MTS cytotoxicity assay, HCT-116; settings: for IC50: read-out: IC50 (μM) HCT-116; for selectivity: ratio of cytotoxicity against 293T cells over cytotoxicity against HCT-116 cells
Method: (§3) HCT-116 cells were cultured in McCoy's 5a Modified Medium (Gibco, USA). […] Both media contain 10% fetal bovine serum (Gibco, USA) and 1% penicillin–streptomycin (Gibco, USA). Cells were maintained in incubator (Thermo Fisher, USA) supplied with 5% CO2 at 37°C. Only cells in logarithmic phase were used in all following experiments.
(§4) In brief, cells were seeded into 96-well plate (Corning, USA) with a density of 3000 cells/well for 24 h, and then treated with tested compounds at various concentrations for 72 h.

HCT-116 cells [3] = assay: Colony formation assay; type: cell-based, human; settings: pre-treatment 24 h with various concentrations, 9 days culture after withdrawal
Method: (§2) Thus, it was further studied to understand its underlying antiproliferation mechanism. The confluence areas of HCT-116 cells treated with various concentrations of compound 8d were detected by a live cell analysis imaging system.
HCT-116 cells were seeded in 6-well plates at a density of 300 cells per well and cultured overnight, and then treated with various concentrations of compound 8d for 24 h. Cells were continuously cultured for 9 days after drug withdrawal. Finally, 1% crystal violet was used to stain cells after fixing with 4% paraformaldehyde, and the visible colonies were recorded by the microscope and counted manually using imageJ.

HCT-116 cells [4] = assay: Annexin V staining in living cells; type: cell-based, human; settings: 5 µM, 72 h
Method: as §1
Cells that seed on coverslips were treated with compound 8d (5 µM) for 72 h. Annexin V-FITC was used to target exposed phosphatidylserine which is a marker of early apoptosis. The nucleus of living cells was labelled by Hoechst 33258. The cells were observed by fluorescence microscope (Olympus, Japan).

293T cells = assay: MTS cytotoxicity assay, 293T (model of normal cells); settings: read-out: IC50 (μM) 293T
Method: as §3, §4

HCT-116 cells [5] = assay: Live cell imaging of confluence area (Incucyte); type: cell-based, human
Method: as §2
Cells were seeded into 24-well plate (1 × 10^4 cells well^−1) for 24 h. Different concentrations of compound 8d were added to treat cells. Time-lapse photography of cells was recorded by Incucyte system. The confluences relative to total well area were calculated using a module of the cell confluence area analysing.

HCT-116 cells [6] = assay: TUNEL assay; type: cell-based, human; settings: 5 µM, 72 h
Method: as §1
TdT-UTP nick end-labelling (TUNEL) assay was used to detect the apoptotic cells by in situ cell death detection kit (Roche, Germany) according to the manufacturer's instruction. Briefly, HCT-116 cells were seeded on coverslips and cultured overnight, following treatment with compound 8d (5 µM) for 72 h, then fixed with 4% paraformaldehyde for 30 min and permeabilized with 0.1% Triton X-100 for 2 min on ice. TUNEL reaction mixture was applied to the cells in an atmosphere for 1 h at 37°C in the dark, following with converter-POD and DAB substrate treatment. Samples were detected by a microscope (Olympus, Japan).

HCT-116 cells [7] = assay: Annexin V/PI double staining, flow cytometry; type: cell-based, human; settings: 2.5 and 5 µM
Method: as §1
Cells were seeded in 6-well plates with a density of 5 × 10^5 cells per well and then treated with various concentrations of compound 8d (0 µM, 2.5 µM and 5 µM) for 48 h. Cells were collected and stained with annexin V and PI for 20 min, and then detected by flow cytometer (BD, USA) to analyse the apoptotic cell distribution. Living cells (annexin V^−/PI^−), early apoptotic cells (annexin V^+/PI^−), late apoptotic cells (annexin V^+/PI^+) and necrotic cells (annexin V^−/PI^+) were calculated in the Cell Quest software (BD, USA).

[8] = MTS assay, 72 h treatment, mean ± s.d.

Row | Structure (SMILES) | IC50 (HCT-116 cells [2]; Homo sapiens, HCT-116, 72 h) [µM] | selectivity (HCT-116 cells [2]) | IC50 (293T cells; Homo sapiens, HEK-293T, 72 h) [µM] | other results
1 | COc1ccc(COCc2cn([C@H]3C(OC(C)=O)O[C@H](COC(C)=O)[C@@H](OC(C)=O)[C@@H]3OC(C)=O)nn2)cc1 (stereo partly drawn) [Compound 8d, 1-(1,3,4,6-Tetra-O-acetyl-D-glucopyranosyl)-4-(4-methoxybenzene)hydryloxymethyl-[1,2,3]-triazole] | 2.88 ± 0.32 | 10.89 | 31.35 ± 0.1 | apoptotic DNA fragmentation, Hoechst 33258 staining (HCT-116 cells [1]): Apoptotic DNA fragmentation; cytotoxicity / antiproliferation activity towards HCT-116 (in words) (HCT-116 cells [2]; MTS assay): comparable to 5-FU; colony formation of HCT-116 (HCT-116 cells [3]): inhibited the colony formation of HCT-116 by a dose-dependent manner; Annexin V-FITC staining on cellular membranes of living cells (HCT-116 cells [4]): Annexin-V-positive staining emerged on cellular membranes; proliferation of HCT-116 cells (confluence area) (HCT-116 cells [5]; 10 µM, for at least 72 h): completely inhibited; proliferation of HCT-116 cells (confluence area), dose dependence (HCT-116 cells [5]; various concentrations): dose-dependently inhibited the proliferation; DNA fragmentation, TUNEL assay (HCT-116 cells [6]): DNA fragmentation emerged; induction of apoptosis, Annexin V/PI assay (in words) (HCT-116 cells [7]): dose-dependently induced early apoptosis and late apoptosis
2 | CC(=O)OC[C@H]1OC(OC(C)=O)[C@H](n2cc(COCc3ccc(F)cc3)nn2)[C@@H](OC(C)=O)[C@@H]1OC(C)=O (stereo partly drawn) [Compound 8e, 1-(1,3,4,6-Tetra-O-acetyl-D-glucopyranosyl)-4-(4-fluorobenzene)hydryloxymethyl-[1,2,3]-triazole] | 4.17 ± 0.06 | 1.94 | 8.1 ± 0.08 | 
3 | CC(=O)OC[C@H]1OC(OC(C)=O)[C@H](n2cc(COCc3ccc([N+](=O)[O-])cc3)nn2)[C@@H](OC(C)=O)[C@@H]1OC(C)=O (stereo partly drawn) [Compound 8i, 1-(1,3,4,6-Tetra-O-acetyl-D-glucopyranosyl)-4-(4-nitrobenzene)hydryloxymethyl-[1,2,3]-triazole] | 17.3 ± 3.86 | 0.46 | 8 ± 0.77 | 
4 | O=c1[nH]cc(F)c(=O)[nH]1 [Compound 5-FU, 5-Fluorouracil, reference compound] | 3.62 ± 1.22 | 2.52 | 9.13 ± 1.63 | 
5 | CC(=O)OC[C@H]1OC(OC(C)=O)[C@H](n2cc(COCc3ccc(Br)cc3)nn2)[C@@H](OC(C)=O)[C@@H]1OC(C)=O (stereo partly drawn) [8 g, 1-(1,3,4,6-Tetra-O-acetyl-D-glucopyranosyl)-4-(4-bromobenzene)hydryloxymethyl-[1,2,3]-triazole] | 4.55 ± 0.23 | 2.56 | 11.7 ± 0.16 | 
6 | CC(=O)OC[C@H]1OC(OC(C)=O)[C@H](n2cc(COCc3ccc(C(F)(F)F)cc3)nn2)[C@@H](OC(C)=O)[C@@H]1OC(C)=O (stereo partly drawn) [8 h, 1-(1,3,4,6-Tetra-O-acetyl-D-glucopyranosyl)-4-(4-trifluoromethylbenzene)hydryloxymethyl-[1,2,3]-triazole] | 14.3 ± 2.18 | 0.42 | 6.09 ± 0.42 | 
7 | CC(=O)OC[C@H]1OC(OC(C)=O)[C@H](N=[N+]=[N-])[C@@H](OC(C)=O)[C@@H]1OC(C)=O (stereo partly drawn) [Compound 4, 1,3,4,6-Tetra-O-acetyl-2-azido-2-deoxy-D-glucose, reference compound] | 97.5 ± 1.58 | 0.48 | 46.9 ± 2.93 | 
8 | CC(=O)OC[C@H]1OC(OC(C)=O)[C@H](n2cc(CO)nn2)[C@@H](OC(C)=O)[C@@H]1OC(C)=O (stereo partly drawn) [Compound 8a, 1-(1,3,4,6-Tetra-O-acetyl-D-glucopyranosyl)-4-hydroxymethyl-[1,2,3]-triazole] | > 50 |  | > 50 | cytotoxicity / antiproliferation activity towards HCT-116 (in words) (HCT-116 cells [2]; MTS assay): fairly weak
9 | CC(=O)OC[C@H]1OC(OC(C)=O)[C@H](n2cc(COCc3ccc(C)cc3)nn2)[C@@H](OC(C)=O)[C@@H]1OC(C)=O (stereo partly drawn) [Compound 8c, 1-(1,3,4,6-Tetra-O-acetyl-D-glucopyranosyl)-4-(4-methylbenzene)hydryloxymethyl-[1,2,3]-triazole] | 6.4 ± 0.2 | 3.06 | 19.57 ± 0.13 | 
10 | CC(=O)OC[C@H]1OC(OC(C)=O)[C@H](N)[C@@H](OC(C)=O)[C@@H]1OC(C)=O (stereo partly drawn) [AOAG, reference compound] |  |  |  | IC50 (HCT-116 cells [2]; [8]): > 200 µM; IC50 (293T cells; [8]): > 200 µM
11 | CC(=O)OC[C@H]1OC(OC(C)=O)[C@H](n2cc(COCc3ccc(Cl)cc3)nn2)[C@@H](OC(C)=O)[C@@H]1OC(C)=O (stereo partly drawn) [Compound 8f, 1-(1,3,4,6-Tetra-O-acetyl-D-glucopyranosyl)-4-(4-chlorobenzene)hydryloxymethyl-[1,2,3]-triazole] | 7.04 ± 0.06 | 3.18 | 22.41 ± 0.05 | 
12 | OCc1ccccc1 [Compound 6b, reference compound] | > 200 |  | > 200 | 
